The results in this text go back to PMC9917184, “Synthesis and Biological Evaluation of Potential Oncoimmunomodulator Agents” (International Journal of Molecular Sciences, 2023).

Like-named read-outs stand apart in the source and are kept apart here.

One assay concerns Jurkat T cells. The experiment in a line: Jurkat T cell viability in co-culture with cancer cells (flow cytometry count). Format: cell-based. As to conditions: Homo sapiens, 24 h, read-out: percentage of living Jurkat cells relative to non-treated co-cultures. How it is done: (§1) The effect of the synthesized compounds on tumor cell proliferation in the presence of PD-1-expressing Jurkat T cells was also studied. This assay was carried out, as in the previous experiments, in the HT29, MCF7, and A549 cell lines (see Table 4). Interferon γ-stimulated cancer cells were treated for 24 h with the compounds at 100 μM in presence of Jurkat T cells. Then, cells were counted using flow cytometry. The percentage of living cells relative to non-treated co-cultures (control) was established for both cancer and immune cells in every co-culture.
(§2) To study the effect of the compounds on the cell viability in co-culture with Jurkat T cells or THP-1 cells, 10^5 or 2 × 10^5 of the corresponding cancer cells line per well were seeded and incubated for 24 h, then the medium was changed by one cell culture medium supplemented with IFN-γ (10 ng/mL; human, Invitrogen®) and containing 5 × 10^5 or 10^5 Jurkat T cells or THP-1, respectively, per well and 100 µM of the corresponding compound or DMSO for the […] control. After 24 h/48 h of incubation, supernatants were collected to determine Jurkat T or THP-1 living cells, and on the other hand, corresponding cancer cells were collected with trypsin. Both types of suspension cells were fixed with 4% in PBS paraformaldehyde and counted by flow cytometry.

The subject of another assay is c-Myc. Nature of the assay: Total c-Myc relative quantification by flow cytometry in cancer cell lines. Format: cell-based, human. The following applies: 24 h. As to the method: (§3) The effect of these triazole derivates on c-Myc and PD-L1 was measured in three different cancer cell lines (HT-29, MCF-7, A-549) by flow cytometry. Thus, cells were incubated for 24 h with the corresponding compound at a concentration of 100 μM. Dimethyl sulfoxide (DMSO)-treated cells were used as the negative control, and a PD-L1 inhibitor, BMS-8 [29, 31], was used as a reference control. After permeabilization and fixation, cells were treated with anti-PD-L1 conjugated to AlexaFluor®647 and anti-c-Myc conjugated to fluorescein to determine the amount of both targets related to the negative control. Table 1 show the results in terms of the percentage of the detected target in relation to the negative control. This assay was carried out on cancer cell lines HT-29, MCF-7, and A-549.
(§4) To study the effect of the compounds on every biological target in cancer cell lines, the compounds were used at a 100 µM dose.
(§5) For the assay, 10^5 cells per well were incubated for 24 h with the corresponding dose of the tested compound in a total volume of 500 μL of their growth media.
(§6) To detect total PD-L1 and c-Myc, after the cell treatments, they were collected and fixed with 4% in PBS paraformaldehyde. After fixation, a treatment with 0,5% in PBS Triton™ X-100 was performed, and finally, cells were stained with FITC Mouse monoclonal Anti-c-Myc (ab223913) and Alexa Fluor® 647 Rabbit monoclonal Anti-PD-L1 (ab215251).
(In general: Flow cytometry measures light scatter and fluorescence of single cells or particles in a stream.)

For the next assay, the target named is PD-L1 (Homo sapiens, UniProt Q9NZQ7). Nature of the assay: Total PD-L1 relative quantification by flow cytometry in cancer cell lines. Format: cell-based. More on the design: Alexa Fluor® 647 Rabbit monoclonal Anti-PD-L1 (ab215251); endogenous in cells; host or cells: HT-29. The following applies: 24 h, total PD-L1 relative to negative control (DMSO). As to the method: as §3, §4, §5, §6

The test system of a further assay is MCF-7. Nature of the assay: MCF-7 cell viability in co-culture with Jurkat T cells (flow cytometry count). Format: cell-based, human. The following applies: 24 h; for viability at 100 µM: Homo sapiens, MCF7, MCF-7/Jurkat T co-culture, IFN-γ stimulated, read-out: percentage of living MCF-7 cells relative to non-treated co-cultures; for inhibition rate of MCF-7 cell viability: co-cultured with Jurkat T cells, 100 μM. As to the method: as §1, §2

In another assay the test system is membrane VEGFR-2. Nature of the assay: Membrane VEGFR-2 relative quantification by flow cytometry in cancer cells co-cultured with Jurkat T cells. Format: cell-based, human. The following applies: 100 μM, 24 h, relative to non-treated co-cultures. How it is done: (§7) We determined by flow cytometry the effect of these compounds on the expression of membrane PD-L1 in cancer cells when they were co-cultured with immune cells. Thus, interferon γ-stimulated cancer cells were treated for 24 h with the compounds at 100 μM in presence of Jurkat T cells. Then, cells were fixed and treated with anti-PD-L1 conjugated to AlexaFluor®647. We took advantage of the versatility of flow cytometry to simultaneously measure the expression of membrane VEGFR-2 by using anti-VEGFR-2 conjugated to fluorescein.
(§8) To study the effect of the compounds on every biological target in co-cultured cancer cell lines, the compounds were incubated for 24h as described before.
(§9) To detect membrane PD-L1 and VEGFR-2, after the cell treatments, they were collected, fixed with 4% in PBS paraformaldehyde, and stained with FITC Mouse monoclonal Anti-Human VEGFR-2 (ab184903) and Alexa Fluor® 647 Rabbit monoclonal Anti-PD-L1 (ab215251).

Another assay deals with A-549. Nature of the assay: A-549 cell viability in co-culture with Jurkat T cells (flow cytometry count). Format: cell-based, human. As to conditions: 24 h; for viability at 100 µM: Homo sapiens, A549, A-549/Jurkat T co-culture, IFN-γ stimulated, read-out: percentage of living A-549 cells relative to non-treated co-cultures. How it is done: as §1, §2
A further assay deals with HT-29. The experiment in a line: HT-29 cell viability in co-culture with Jurkat T cells (flow cytometry count). Format: cell-based, human. The following applies: Homo sapiens, HT-29/Jurkat T co-culture, IFN-γ stimulated, 24 h, read-out: percentage of living HT-29 cells relative to non-treated co-cultures. How it is done:
as §1, §2

Another assay addresses T1, membrane PD-L1 (Homo sapiens, UniProt Q9NZQ7).
T1 construct: Alexa Fluor® 647 Rabbit monoclonal Anti-PD-L1 (ab215251); endogenous in cells; host or cells: HT-29, MCF-7, A-549 (A17: MCF-7 only; A14: IFN-gamma-stimulated cancer cells co-cultured with Jurkat T cells)
Nature of the assay: Membrane PD-L1 relative quantification by flow cytometry in cancer cells co-cultured with Jurkat T cells. As to conditions: Jurkat, 24 h; for remaining activity at 100 µM: relative to non-treated co-cultures, read-out: % PDL1 (membrane). Format: cell-based. As to the method:
as §7, §8, §9

Setting [1] is: A-549, 100 µM, relative to negative control (DMSO).
Where [2] appears, read: HT-29, 100 µM, detected target relative to negative control (DMSO).
Where [3] appears, read: MCF-7, 100 µM, relative to negative control (DMSO).
Setting [4] is: A549 co-cultured with Jurkat T cells.
Setting [5] is: HT29 co-cultured with Jurkat T cells.
[6] abbreviates: MCF7 co-cultured with Jurkat T cells.

Chain of PD-L1 (Q9NZQ7 19-290): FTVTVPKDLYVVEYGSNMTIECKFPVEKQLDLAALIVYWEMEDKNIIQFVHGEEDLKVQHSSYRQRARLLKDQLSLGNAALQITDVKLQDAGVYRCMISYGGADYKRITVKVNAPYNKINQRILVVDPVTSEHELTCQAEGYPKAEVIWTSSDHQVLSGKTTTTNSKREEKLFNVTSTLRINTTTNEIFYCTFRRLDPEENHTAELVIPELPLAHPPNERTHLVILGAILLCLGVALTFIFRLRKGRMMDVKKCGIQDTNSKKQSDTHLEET
T1 sequence (Q9NZQ7 19-290): as above

For `COc1ccc(C(OCCc2ccc(CCn3cc(-c4cccc(OC)c4)nn3)cc2)(c2ccccc2)c2ccc(OC)cc2)cc1` [Compound 11, 1-(4-(2-(bis(4-methoxyphenyl)(phenyl)methoxy)ethyl)phenethyl)-4-(3-methoxyphenyl)-1H-1,2,3-triazole], the viability at 100 µM worked out at 511 ± 86% in the assay on Jurkat T cells (A-549/Jurkat T co-culture); 76 ± 52% in the assay on Jurkat T cells (HT-29/Jurkat T co-culture); 79 ± 13% with Jurkat T cells (MCF-7/Jurkat T co-culture); 50 ± 1% with MCF-7; 102 ± 4% with A-549; 65 ± 6% with HT-29. The “% c-Myc” value is reported as 55 ± 4% in the assay on c-Myc (setting [1]), 50 ± 3% with c-Myc (setting [2]) and 81 ± 2% in the assay with c-Myc (setting [3]). In addition, the c-Myc inhibition in the assay on c-Myc (HT-29, 100 μM) amounted to 50%. Also, the remaining activity at 100 µM at PD-L1 (A549, A-549, 100 µM) came out at 104 ± 1%; at PD-L1 (HT-29, 100 µM), 48 ± 4%; on PD-L1 (MCF7, MCF-7, 100 µM), 108 ± 7%; on membrane PD-L1 (setting [4]), 94 ± 1%; on membrane PD-L1 (setting [5]), 104 ± 14%; at membrane PD-L1 (setting [6]), 48 ± 7%. Besides, in the assay on MCF-7, the “inhibition rate of MCF-7 cell viability” value is reported as “half”. The “%VEGFR2 (membrane)” value in the assay on membrane VEGFR-2 (setting [4]) is listed as 85 ± 1%; in the assay on membrane VEGFR-2 (setting [5]), 79 ± 10%; with membrane VEGFR-2 (setting [6]), 92 ± 10%.

Usually inhibition stands for the percentage by which the read-out fell short of the control. For the compound `COc1ccccc1-c1cn(CCc2ccc(CCO)cc2)nn1` [Compound 14, 2-(4-(2-(4-(2-methoxyphenyl)-1H-1,2,3-triazol-1-yl)ethyl)phenyl)ethan-1-ol], the viability at 100 µM with Jurkat T cells (A-549/Jurkat T co-culture) amounted to 109 ± 20%; in the assay on Jurkat T cells (HT-29/Jurkat T co-culture) it was 106 ± 9%; with Jurkat T cells (MCF-7/Jurkat T co-culture), 127 ± 6%; in the assay on MCF-7, 47 ± 1%; with A-549, 78 ± 9%; in the assay with HT-29, 67 ± 10%. The “% c-Myc” value with c-Myc (setting [1]) was 85 ± 10%; with c-Myc (setting [2]) it was 67 ± 4%; in the assay with c-Myc (setting [3]), 71 ± 5%. For the same compound, the remaining activity at 100 µM at PD-L1 (A549, A-549, 100 µM) was found to be 54 ± 7%; at PD-L1 (HT-29, 100 µM), 138 ± 2%; at PD-L1 (MCF7, MCF-7, 100 µM), 71%; on membrane PD-L1 (setting [4]) it was 85 ± 3%; on membrane PD-L1 (setting [5]), 61 ± 3%; on membrane PD-L1 (setting [6]), 80 ± 5%. In addition, the “inhibition rate of MCF-7 cell viability” value with MCF-7 is on record as “around 60%”. The “%VEGFR2 (membrane)” value is recorded as 106 ± 1% with membrane VEGFR-2 (setting [4]), 97 ± 6% in the assay with membrane VEGFR-2 (setting [5]) and 91 ± 6% in the assay with membrane VEGFR-2 (setting [6]). The “inhibition rate of A-549 cell viability” value in the assay on A-549 (co-cultured with Jurkat T cells, 100 μM) was “around 30%”. Further, the inhibition at 100 µM on membrane PD-L1 (HT-29 co-cultured with Jurkat T cells, read-out: membrane PD-L1 inhibition rate) lay within 40 to 50%.

With `COc1ccc(C(OCCc2ccc(CCn3cc(-c4ccccc4)nn3)cc2)(c2ccccc2)c2ccc(OC)cc2)cc1` [Compound 1, 1-(4-(2-(bis(4-methoxyphenyl)(phenyl)methoxy)ethyl)phenethyl)-4-phenyl-1H-1,2,3-triazole], the viability at 100 µM with Jurkat T cells (A-549/Jurkat T co-culture) turned out to be 88 ± 18%; in the assay with Jurkat T cells (HT-29/Jurkat T co-culture), 108 ± 6%; in the assay with Jurkat T cells (MCF-7/Jurkat T co-culture), 86 ± 13%; in the assay with MCF-7, 56 ± 6%; in the assay on A-549, 127 ± 1%; with HT-29, 81 ± 12%. Further, the figures for the “% c-Myc” value with c-Myc (setting [1]), with c-Myc (setting [2]) and with c-Myc (setting [3]) were 182 ± 27%, 135 ± 5% and 73 ± 1%, respectively. For the same compound, the remaining activity at 100 µM at PD-L1 (A549, A-549, 100 µM) was 63 ± 16%; at PD-L1 (HT-29, 100 µM), 85 ± 3%; on PD-L1 (MCF7, MCF-7, 100 µM) it was 90 ± 8%; at membrane PD-L1 (setting [4]), 96 ± 9%; on membrane PD-L1 (setting [5]), 143 ± 48%; at membrane PD-L1 (setting [6]), 109 ± 9%. Besides, the “%VEGFR2 (membrane)” value in the assay with membrane VEGFR-2 (setting [4]) turned out to be 79 ± 7%; with membrane VEGFR-2 (setting [5]) it was 85 ± 0%; in the assay with membrane VEGFR-2 (setting [6]) it was 76 ± 1%.
